Entries after “also recorded” stand apart in the source; their conditions may differ. Where two headings read alike, the source gives them in different places. Each block holds one molecule with its values, some of them ahead of it.
Columns and labels:
human 5-HT1A receptor = molecular target: T1, human 5-HT1A receptor (Homo sapiens, UniProt P08908); test: 5-HT1A receptor binding assay; conditions: for Ki: read-out: K1 value
T1 construct: expressed in transfected cells; host or cells: HEK293 cells
T1 sequence (P08908 1-422): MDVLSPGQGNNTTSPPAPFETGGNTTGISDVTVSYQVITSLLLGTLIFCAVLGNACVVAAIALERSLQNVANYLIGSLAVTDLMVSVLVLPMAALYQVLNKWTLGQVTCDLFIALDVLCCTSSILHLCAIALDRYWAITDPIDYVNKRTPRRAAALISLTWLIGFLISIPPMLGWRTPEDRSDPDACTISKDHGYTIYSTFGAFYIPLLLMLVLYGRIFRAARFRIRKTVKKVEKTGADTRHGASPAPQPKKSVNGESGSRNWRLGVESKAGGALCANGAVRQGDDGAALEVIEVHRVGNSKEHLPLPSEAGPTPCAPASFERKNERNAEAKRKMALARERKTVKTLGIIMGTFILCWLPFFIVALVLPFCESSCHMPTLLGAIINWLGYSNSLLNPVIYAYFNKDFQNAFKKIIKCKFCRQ
Procedure: Membranes are prepared for binding using the human 5-HT1A receptor expressed in HEK293 cells. Cells are collected and ruptured using a dounce homogenizer. The cells are spun at 18000xg for 10 minutes and the pellet is resuspended in assay buffer, frozen in liquid nitrogen and kept at −80° C. until the day of the assay.
A total of 30 ug protein is used per well. The assay is carried out in 96-deep-well plates. The assay buffer is 50 mM HEPES containing 2.5 mM MgCl2 and 2 mM EGTA. […] 10 mM serotonin serves as blocking agent to determine non-specific binding. The reaction is terminated by the addition of 1 ml of ice cold 50 mM HEPES buffer and rapid filtration through a Brandel Cell Harvester using Whatman GF/B filters. The filter pads are counted in an LKB Trilux liquid scintillation counter. IC50 values are determined using non-linear regression by Excel-fit.

[1] = Gammans et al. 1986; cited from earlier work
dorsal raphe neurons [2] = conditions: VanderMaelen et al. 1986; cited from earlier work
[3] = Human pharmacokinetic study, oral buspirone BID for 25 days
rat pups = test: Rat pup isolation-induced ultrasonic vocalization test (vocalization and locomotor activity); format: in vivo; conditions: sc, 30 min prior to test; for ID50, dose predicted to reduce the number of ultrasonic calls by 50%: 9-11 day old rat pups, cold plate
From the text: Ultrasonic vocalizations emitted by rat pups following isolation from their mother and littermates and subjected to a variety of environmental stimuli (e.g., cold temperature) has proven to be a sensitive method for assessing potential anxiolytic and anxiogenic compounds (Winslow and Insel, 1991, Psychopharmacology, 105:513-520). Psychoactive compounds purported to be anxiolytic suppress the frequency of ultrasonic calls whereas, calls are increased by drugs with anxiogenic properties. More importantly, the isolation-induced ultrasonic vocalization paradigm appears to be most sensitive for detecting anxiolytic properties across a broad spectrum of drug classes such as benzodiazepines, 5-HT reuptake inhibitors, 5-HT1A agonists as well as NMDA antagonists.
Harlan Sprague-Dawley rat pups (male and female) were housed in polycarbonate cages with the dam until 9-11 days old. Thirty minutes before testing, pups were removed from the dam, placed into a new cage with a small amount of home bedding and brought into the lab and placed under a light to maintain body temperature at 37° C. Pups were then weighed, sexed, marked and returned to the litter group until behavioral assessment. Testing took place in a Plexiglas recording chamber that contained a metal plate maintained at (18-20° C.) with a 5×5 cm grid drawn on the plate. A microphone was suspended 10 cm above the plate to record ultrasonic vocalizations. Ultrasonic calls were recorded using the Noldus UltraVox system providing on-line analysis of the frequency and duration of calls. The number of grid cells entered by the pup was also collected by visual scoring. […] Immediately following the collection of the baseline measures, pups were injected with vehicle or drug subcutaneously at the nape of the neck and returned to its littermates. […] Baseline differences and percent change from baseline for the frequency of ultrasonic vocalizations and grid cell crossings were analyzed using a one-way ANOVA. […]

[4] = Modified Vogel Conflict test; format: in vivo; conditions: earlier in-house testing
From the text: Earlier in-house functional testing of BMY 28674 utilized an in vivo test method based on modification of the Vogel Conflict test, a simple reliable conflict procedure for testing antianxiety agents (see: Vogel, et al., Psychopharmacologia, (Berl.) 21, pp.1-7, 1971). […] No useful antianxiety activity has been ascribed to BMY 28674 previously.

dorsal raphe neurons [5] = test: Inhibition of dorsal raphe neuronal firing after systemic administration; format: in vivo; conditions: previous in-house testing, I.V. and intragastric, rats
From the text: See: VanderMaelen, et al., Eur. J. Pharmacol., 129, pp. 123-30, 1986. While one metabolite, the structural fragment 1-(2-pyrimidinyl)piperazine, also known as 1-PP, [drawing 3]

CYP3A4 = test: Inhibition of the metabolism of buspirone by ketoconazole in pooled HLM; conditions: ketoconazole concentrations up to 0.125 μM
[6] = membranes of HEK293 cells, 1 nM 3H-8-OH-DPAT, read-out: IC50
[7] = membranes of HEK293 cells, 1 nM 3H-8-OH-DPAT

- IC50 (human 5-HT1A receptor; [6]): 928 nM
- Ki (human 5-HT1A receptor; [7]): 464 nM
SMILES: O=C1CC2(CCCC2)CC(=O)N1CCCCN1CCN(c2ncc(O)cn2)CC1 [5-OH-buspirone (BMY 14131)]

SMILES: O=C1CC2(CCCC2)CC(=O)N1CCCCN1CCN(c2ncccn2)CC1 [Buspirone]
- variation of maximum plasma concentration between individuals [1]: up to 10 fold
- inhibition of firing of dorsal raphe neurons (dorsal raphe neurons [2]): potently inhibits
- concentration at 2 h ([3]; human, blood, po): < 1 ng/mL
- safety and tolerability ([3]; multiple oral doses, five dose levels 5-30 mg BID, healthy adults, 25 days): safe and generally well tolerated
- mean blood level concentration of buspirone ([3]; oral buspirone BID, at the higher doses, FIG. 3): 1 to 2 ng/mL
- ID50, dose predicted to reduce the number of ultrasonic calls by 50% (rat pups): 0.10 mg/kg

SMILES: O=C1CC2(CCCC2)C(O)C(=O)N1CCCCN1CCN(c2ncccn2)CC1 (centres unmarked) [BMY 28674, 6-hydroxy-8-[4-[4-(2-pyrimidinyl)-piperazinyl]-butyl]-8-azaspiro[4.5]-7,9-dione]
- blood concentration of BMY 28674 relative to 1-PP ([3]; after oral buspirone, human subjects): several-fold greater; also recorded: several-fold higher
- ID50, dose predicted to reduce the number of ultrasonic calls by 50% (rat pups): 0.13 mg/kg
- ID50 dose estimated to reduce locomotor activity (rat pups; grid cell crossings): 0.41 mg/kg
- IC50 (human 5-HT1A receptor; [6]): 114 nM
- Ki (human 5-HT1A receptor; [7]): 57 nM
- antianxiety response in the Vogel test [4]: did not elicit an antianxiety response

SMILES: c1cnc(N2CCNCC2)nc1 [1-PP, 1-(2-pyrimidinyl)piperazine]
- IC50 (human 5-HT1A receptor): > 1000 nM
- binding / affinity at the 5-HT1A receptor (human 5-HT1A receptor): does not demonstrate binding
- inhibition of dorsal raphe neuronal firing (dorsal raphe neurons [5]): weak inhibition

SMILES: CC(=O)N1CCN(c2ccc(OCC3COC(Cn4ccnc4)(c4ccc(Cl)cc4Cl)O3)cc2)CC1 (centres unmarked) [ketoconazole]
- effect on buspirone metabolism (CYP3A4): No effect

- IC50 (human 5-HT1A receptor; [6]): 652 nM
- Ki (human 5-HT1A receptor; [7]): 326 nM
SMILES: O=C1CC2(CCC(O)C2)CC(=O)N1CCCCN1CCN(c2ncccn2)CC1 (centres unmarked) [3-OH-buspirone (BMY 14295)]

— patent US20010009913A1, “Anxiety method” (priority 1999, published 2001)
